# Tests used:
# [1] = system: calf thymus deoxyribonucleic acid; assay: DNA binding by viscometric (hydrodynamic) technique
# Procedure: The titrations were performed for all compounds including EB (control) at 20, 40, 60, 80, and 100 μM concentrations. In the Ostwald viscometer, these substances were also separately treated with the calf thymus deoxyribonucleic acid solution (100 μM).
# Hydrodynamic findings can be utilized to assess the alteration of DNA length and afford details on the binding tendency between small molecules and biomolecules. As a result of their sensitivity to DNA contour length changes, which implies that the average distance between each monomer (cl = 0.338 nm/bp for B-form DNA), the DNA binding properties of all test compounds were further validated by this method. According to the Lerman concept, interactions between small molecules and deoxyribonucleic acid via covalent and noncovalent bindings are often possible. When a chemical substance interacts with the deoxyribonucleic acid double helix, the contour length of DNA increases via intercalation and leads to an increase in the absolute viscosity. Meanwhile, if DNA viscosity is not affected during interactions, which leads to the responsible for the major/minor groove binding due to H-bond/Van der Waals interactions, electrostatic, partial, or nonclassical interaction modes. Therefore, analyzing the binding modes provides additional support for the findings as well as a crucial aspect of the conventional intercalation concept. In this case, it was observed that the absolute viscosity increased consistently along with the concentration of each substance at the fixed DNA concentration. The DNA must extend to facilitate the binding of ligands, which causes a considerable rise in DNA viscosity while small molecules intercalate into the DNA helix. According to equation (12), an increase in relative viscosity denotes an intercalation-induced lengthening of the deoxyribonucleic acid base pair. While adhering to the principle of excluding the nearest neighbors, intercalation entails inserting a planar molecule into a DNA base pair without rupturing the hydrogen bonds that hold the base pairs together. This causes a diminution in the DNA helical twist and an extension of the DNA. Moreover, a molecule can be presumed to bind to deoxyribonucleic acid by intercalation between base pairs if it causes lengthening and unwinding of the deoxyribonucleic acid base pairs. In this case, the relative viscosity of DNA gradually increases, while the […]. Moreover, the affinity interactions and their slope values were observed from the relative specific viscosity (η⁄η0)^1/3 plotted straight line contrasting [Compound]/[DNA], and absolute specific viscosity of deoxyribonucleic acid in the absence or presence of samples was evaluated using equation (12) (Table 3). […] The evaluated slope findings were in the subsequent sequence: (EB) 1.215 > (1a) 0.915 > (2a) 0.630 > (HL) 0.490 (Figure S21 and Table 3). […] Due to the existence of the 2,2′-bipyridine and morpholine-fused aromatic planar systems, compounds can interact with deoxyribonucleic acid robustly via intercalation. The outcomes were excellent in accordance with the observed outcomes of absorption spectral properties.(11) η/η0^1/3=tcomplex−t0/t0/tDNA−t0/t0, where η and η0 are represented as specific viscosity of DNA in the presence complex and specific viscosity of DNA alone, and t0, tDNA, and tcomplex are represented as the average flow time of the Tris-HCl buffer solution, the average flow time of DNA alone solution, and the average flow time of DNA interacted with the samples, respectively. Error limit is ±2.5% (P < 0.025).
# [2] = target: BSA (Bos taurus, UniProt P02769); assay: FRET computation, donor (BSA) - acceptor (compound); format: binding, bovine; set-up: kET (rate of energy transfer): unit not given here; conditions: for J, spectral overlap integral: BSA donor, compound acceptor; for B (brightness of complex-BSA system): free BSA = 6,573.60
# [3] = target: bovine serum albumin (Bos taurus, UniProt P02769); assay: BSA binding by UV-visible absorption titration; conditions: for Chromism (% H), hyperchromism: BSA 278 nm; for Δλ (nm), blue shift of BSA band: Tris-HCl, 25 μM BSA; for ∆Gb°: –RT lnKapp, 298 K
# Chain of bovine serum albumin (P02769 25-607): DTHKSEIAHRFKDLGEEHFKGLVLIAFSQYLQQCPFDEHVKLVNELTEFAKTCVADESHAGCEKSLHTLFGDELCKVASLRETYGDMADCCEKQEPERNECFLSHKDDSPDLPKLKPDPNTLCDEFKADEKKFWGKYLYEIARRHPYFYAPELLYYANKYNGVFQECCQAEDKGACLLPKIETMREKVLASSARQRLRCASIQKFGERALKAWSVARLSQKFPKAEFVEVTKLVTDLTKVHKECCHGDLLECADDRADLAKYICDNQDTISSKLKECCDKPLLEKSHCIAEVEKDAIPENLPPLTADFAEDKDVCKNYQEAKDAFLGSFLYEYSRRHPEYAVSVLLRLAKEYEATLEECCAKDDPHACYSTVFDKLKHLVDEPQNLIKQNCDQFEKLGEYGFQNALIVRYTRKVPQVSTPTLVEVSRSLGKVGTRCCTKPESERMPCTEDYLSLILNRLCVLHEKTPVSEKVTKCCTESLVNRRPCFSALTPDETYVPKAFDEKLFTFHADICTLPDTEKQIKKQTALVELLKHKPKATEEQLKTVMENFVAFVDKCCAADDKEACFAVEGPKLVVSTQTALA
# Procedure: In the presence of Tris-HCl buffer solution, the UV-vis absorption titrations were done with a 25 μM concentration of BSA at room temperature. While the sample concentrations (0–25 μM) increased in the same BSA concentration solution, the change in the absorption band at 278 nm was continuously noted.
# The UV-visible spectral titration properties are imperatively supported to scrutinize the structural changes and the nature of quenched biomolecules by the chemical substance. The titration was executed for BSA in the presence and absence of substances in Tris-HCl solution (Figure 7 and Table 7). Two distinctive adsorption peaks can be noticed in the UV-visible spectra of free BSA: one at 210 nm, which is connected to the polypeptide backbone, and the other at 280 nm, which is responsible for Trp, Tyr, and Phe aromatic amino acid residues. BSA's interaction with the test substances is designated by alterations in the electronic absorption spectra. Quenching typically occurs in either a static or dynamic phase. The static quenching mechanism only involves the synthesis of a bovine serum albumin-compound in the ground state, when a dynamic quenching mechanism involves the temporary presence of the excited state due to diffusion, which brings the BSA and the compound into close proximity. In addition, the dynamic quenching mechanism has no outcome on the electronic absorption spectrum; it only affects the excited state. Furthermore, both types have different temperature dependences; for example, in dynamic quenching, the quenching constants are meant to rise with temperature. Conversely, raised temperatures in static quenching favour decreased stability and lower quenching constants. […] It also recommended that bovine serum albumin and the test compounds in the ground state interact statically. In this case, the evaluated hyperchromism was found in the range of 47.79 to 65.62%. […] The Benesi–Hildebrand (37) is supported to evaluate the Kb values (Table 7). The Kapp findings for all substances were estimated from the finding of the intercept divided slope in the linear regression plot of [(A∞ − A0)/(Ax − A0)] vs. {1/[compound]} M^−1(Figure S34). The evaluated Kb findings for all test substances were in the subsequent order: (1a) > (2a) > (HL) with ∆Gb° values from –22.1246 to –28.0038 kJ·mol^−1. Complex (1a) is also clearly shown to have the greatest spontaneous binding efficacy with BSA among others.
# Hyperchromism%=(A∞ − A0)/A∞ × 100; A0 is denoted as absorbance of BSA alone at 278 nm, A∞ is represented as absorbance of the fully bound form of BSA with complex or ligand, and Ax is absorbance of BSA in the addition of different concentration of complex or ligand, Gibb's free energy change ΔGb°=–RT lnKapp (where R = […] and T = 298 K); Kapp is denoted as apparent binding constant evaluated from the UV-vis absorption spectral titration.(37) A∞−A0/AX−A0=1/KbCompound+1, where ∆Amax = (A∞ − A0), ∆A = (Ax − A0), A0, Ax, and A∞ are denoted as the absorbance of free BSA, the absorbance of BSA in the increment concentrations of the compound, and the absorbance value of the fully bound form of bovine serum albumin with substance, respectively. Error limit ±2.5%.
smiles,measurement,setting,value
"Oc1ccccc1N=Cc1ccc(N2CCOCC2)cc1 [(HL), 2-(4-morpholinobenzylideneamino)phenol]",Slope of (η/η0)^1/3 vs [Compound]/[DNA],[1],0.490
same,Relative specific viscosity (η/η0)^1/3,[1]; [complex]/[DNA] = 0.2,0.61
same,Relative specific viscosity (η/η0)^1/3,[1]; [complex]/[DNA] = 0.4,0.67
same,Relative specific viscosity (η/η0)^1/3,[1]; [complex]/[DNA] = 0.6,0.75
same,Relative specific viscosity (η/η0)^1/3,[1]; [complex]/[DNA] = 0.8,0.85
same,Relative specific viscosity (η/η0)^1/3,[1]; [complex]/[DNA] = 1.0,1.01
same,E (efficiency of energy transfer),[2],0.3462
same,R0 (Förster radius),[2],2.4400 nm
same,kET (rate of energy transfer),[2],5.2957
same,r (donor-acceptor separation),[2],2.7127 nm
same,"J, spectral overlap integral",[2],0.8215 × 10^−14 (LM^−1·cm^3)
same,B (brightness of complex-BSA system),[2],5339.79 M⁻¹ cm⁻¹
same,Kd,[3],132 µM
same,"Chromism (% H), hyperchromism",[3],47.79%
same,"Δλ (nm), blue shift of BSA band",[3],02 nm
same,∆Gb°,[3],-5.28791 kcal/mol
"[Cu+2].[O-]c1ccccc1N=Cc1ccc(N2CCOCC2)cc1.[O-]c1ccccc1N=Cc1ccc(N2CCOCC2)cc1.c1ccc(-c2ccccn2)nc1 [(1a), [Cu(L)2(bpy)]]",Slope of (η/η0)^1/3 vs [Compound]/[DNA],[1],0.915
same,Relative specific viscosity (η/η0)^1/3,[1]; [complex]/[DNA] = 0.2,0.88
same,Relative specific viscosity (η/η0)^1/3,[1]; [complex]/[DNA] = 0.4,1.11
same,Relative specific viscosity (η/η0)^1/3,[1]; [complex]/[DNA] = 0.6,1.22
same,Relative specific viscosity (η/η0)^1/3,[1]; [complex]/[DNA] = 0.8,1.38
same,Relative specific viscosity (η/η0)^1/3,[1]; [complex]/[DNA] = 1.0,1.66
same,E (efficiency of energy transfer),[2],0.5769
same,R0 (Förster radius),[2],2.4090 nm
same,kET (rate of energy transfer),[2],13.6340
same,r (donor-acceptor separation),[2],2.2877 nm
same,"J, spectral overlap integral",[2],0.7607 × 10^−14 (LM^−1·cm^3)
same,B (brightness of complex-BSA system),[2],5187.78 M⁻¹ cm⁻¹
same,Binding constant Kapp by BH method,[3],81059 M⁻¹
same,"Chromism (% H), hyperchromism",[3],65.62%
same,"Δλ (nm), blue shift of BSA band",[3],05 nm
same,∆Gb°,[3],-6.69307 kcal/mol
"[O-]c1ccccc1N=Cc1ccc(N2CCOCC2)cc1.[O-]c1ccccc1N=Cc1ccc(N2CCOCC2)cc1.[Zn+2].c1ccc(-c2ccccn2)nc1 [(2a), [Zn(L)2(bpy)]]",Slope of (η/η0)^1/3 vs [Compound]/[DNA],[1],0.630
same,Relative specific viscosity (η/η0)^1/3,[1]; [complex]/[DNA] = 0.2,0.74
same,Relative specific viscosity (η/η0)^1/3,[1]; [complex]/[DNA] = 0.4,0.81
same,Relative specific viscosity (η/η0)^1/3,[1]; [complex]/[DNA] = 0.6,0.87
same,Relative specific viscosity (η/η0)^1/3,[1]; [complex]/[DNA] = 0.8,1.03
same,Relative specific viscosity (η/η0)^1/3,[1]; [complex]/[DNA] = 1.0,1.26
same,E (efficiency of energy transfer),[2],0.5615
same,R0 (Förster radius),[2],2.2770 nm
same,kET (rate of energy transfer),[2],10.4206
same,r (donor-acceptor separation),[2],2.1851 nm
same,"J, spectral overlap integral",[2],0.5425 × 10^−14 (LM^−1·cm^3)
same,B (brightness of complex-BSA system),[2],4642.53 M⁻¹ cm⁻¹
same,Binding constant Kapp by BH method,[3],44355 M⁻¹
same,"Chromism (% H), hyperchromism",[3],55.04%
same,"Δλ (nm), blue shift of BSA band",[3],04 nm
same,∆Gb°,[3],-6.33389 kcal/mol

# — paper PMC9763021, “Comprehensive Assessment of Biomolecular Interactions of Morpholine-Based Mixed Ligand Cu(II) and Zn(II) Complexes of 2,2′-Bipyridine as Potential Anticancer and SARS-CoV-2 Agents: A Synergistic Experimental and Structure-Based Virtual Screening” (Bioinorganic Chemistry and Applications, 2022)
